# Assay results taken from paper PMC12489660, “Multitargeted Caffeic Acid Derivatives Inhibit Cardiac RyR2- and NaV1.5- Channels but Stimulate SERCA2a Pump Activity” (ACS Omega, 2025).
# Where “and” joins values, the source holds several entries; their conditions need not be identical. Equal entries are not always repeated.
# How the values were obtained:
# SERCA2a = biological target: T1, SERCA2a (Mus musculus, UniProt O55143); experiment: NADH-coupled ATPase assay on microsomal membrane vesicles from mouse heart ventricles (mouse SER); assay type: biochemical; details: for effect on SERCA2a ATPase activity (in words) / ATPase activity of SERCA2a in mouse SER: 10 μM; for effect on SERCA2a ATPase activity (in words): mouse SER; for ATPase activity of SERCA2a in mouse SER: percentage from the control sample (100%), mean ± SEM
# T1 construct: from tissue; host or cells: adult mouse heart ventricles, microsomal membrane vesicles
# T1 sequence (O55143 1-998 isoform O55143-2): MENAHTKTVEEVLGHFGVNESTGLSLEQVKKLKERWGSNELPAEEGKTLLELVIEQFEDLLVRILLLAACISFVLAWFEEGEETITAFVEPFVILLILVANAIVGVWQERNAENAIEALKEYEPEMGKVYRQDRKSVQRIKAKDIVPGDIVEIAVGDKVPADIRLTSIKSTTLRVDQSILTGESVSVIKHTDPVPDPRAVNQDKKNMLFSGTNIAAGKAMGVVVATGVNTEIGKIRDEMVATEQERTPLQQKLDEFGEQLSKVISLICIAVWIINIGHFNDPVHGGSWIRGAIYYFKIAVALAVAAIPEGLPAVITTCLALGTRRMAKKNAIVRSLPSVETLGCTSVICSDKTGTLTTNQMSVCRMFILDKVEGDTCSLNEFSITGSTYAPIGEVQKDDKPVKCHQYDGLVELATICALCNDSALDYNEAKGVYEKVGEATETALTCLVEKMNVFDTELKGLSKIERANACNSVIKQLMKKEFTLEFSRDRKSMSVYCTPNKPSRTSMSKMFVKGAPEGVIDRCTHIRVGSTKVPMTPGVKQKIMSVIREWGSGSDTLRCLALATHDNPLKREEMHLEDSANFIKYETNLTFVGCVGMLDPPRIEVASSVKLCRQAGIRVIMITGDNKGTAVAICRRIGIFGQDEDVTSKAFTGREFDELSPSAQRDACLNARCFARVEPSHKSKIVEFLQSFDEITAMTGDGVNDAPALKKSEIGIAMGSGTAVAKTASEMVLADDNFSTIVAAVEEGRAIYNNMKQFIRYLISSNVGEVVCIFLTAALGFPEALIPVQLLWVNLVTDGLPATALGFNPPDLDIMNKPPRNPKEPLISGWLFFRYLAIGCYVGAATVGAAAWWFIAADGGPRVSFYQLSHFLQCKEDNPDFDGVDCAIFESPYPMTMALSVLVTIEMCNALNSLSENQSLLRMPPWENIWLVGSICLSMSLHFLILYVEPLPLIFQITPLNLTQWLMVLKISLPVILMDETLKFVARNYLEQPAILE
# Procedure: To this end, we tracked the rate of nicotinamide adenine dinucleotide (NADH) oxidation linked to ATP hydrolysis by observing changes in NADH fluorescence over time. This was done after addition of ATP to solutions containing microsomal membranes enriched with SER vesicles isolated from adult mouse heart ventricles (mouse SER). The NADH fluorescence decrease was recorded on a FlexStation 3 Multimode Microplate Reader. […] We detected the highest increase in ATPase activity (up to 118%), when the vesicles were treated with borate complex 11–13 (Table ). We tested compounds 11–13 in the NADH assay buffer to see whether these compounds could contribute to the rate of NADH fluorescence reduction (Figures S7–S9). No significant deviations were found in the rate of NADH consumption compared to the control sample (0.1 v/v% DMSO).
# Isolation of Microsomal Membrane Vesicles from mouse hearts was done according to procedure described earlier. All animal procedures were performed in accordance with national and institutional regulations.
# Mouse ventricular microsomes (4–5 μg of total protein) were diluted in 100 μL of the assay buffer used for measurement of SERCA activity (described below) and incubated at room temperature for 10 min prior to the experiments. The measurements of SERCA2 activity were made at 25 °C by using a NADH -coupled ATPase assay as described in Radnai et al. with slight modifications. Briefly, the assay buffer contained 60 mM MOPS, 120 mM KCl, 6 mM MgCl2, 1 mM EGTA, 5 mM NaN3, 0.5 mM phosphoenolpyruvate and 0.67 mM CaCl2, pH 7.0. Before the reaction was started by the injection of 10 μL ATP (resulting in 2 mM final concentration in the well), 5 units/mL of both lactate dehydrogenase and pyruvate kinase, 0.5 mM NADH, and 1 μM Ca^2+ ionophore A-23187 (Sigma, C-7522) were added to the diluted sample with or without the tested compound (volume −150 μL). […] The NADH fluorescence decrease was recorded each 2 s for 5 min course on a FlexStation 3 Multi-Mode Microplate Reader in 96-well glass bottom plates (MatTek Corporation; Cat. No. PBK96G-1.5-5-F). Fluorescence was evoked by 380 nm excitation wavelength and collected in a bottom-read mode at 425 nm, cutoff–470 nm, 4 flashes per read. ATP was injected at 60 s, speed–125 μL/s, pipet height–140 μL. The data were analyzed with computer software GraphPad Prism version 8.3.1 (GraphPad Software, Inc.). The difference in signal decrease with and without microsomes was taken as an indicator for the additional ATPase activity performed by SERCA2. The obtained values for maximal SERCA2 activity were normalized for total protein concentration. Maximal SERCA2 activity values are reported as percentages of control (0.1% DMSO) values. Microsomal samples that were kept on ice until usage and set to 100%.
# human NaV1.5 = human NaV1.5 (Homo sapiens, UniProt Q14524); experiment: FLIPR membrane potential assay on CHO NaV1.5 Duo cells (veratridine-induced); assay type: cell-based; details: for NaV1.5 activity in CHO cells: 10 μM, percentage from the control sample (100%), mean ± SEM; for effect on NaV1.5 activity (in words): concentration range 0.1 to 100 μM
# human NaV1.5, sequence (Q14524 1-460 limits assumed): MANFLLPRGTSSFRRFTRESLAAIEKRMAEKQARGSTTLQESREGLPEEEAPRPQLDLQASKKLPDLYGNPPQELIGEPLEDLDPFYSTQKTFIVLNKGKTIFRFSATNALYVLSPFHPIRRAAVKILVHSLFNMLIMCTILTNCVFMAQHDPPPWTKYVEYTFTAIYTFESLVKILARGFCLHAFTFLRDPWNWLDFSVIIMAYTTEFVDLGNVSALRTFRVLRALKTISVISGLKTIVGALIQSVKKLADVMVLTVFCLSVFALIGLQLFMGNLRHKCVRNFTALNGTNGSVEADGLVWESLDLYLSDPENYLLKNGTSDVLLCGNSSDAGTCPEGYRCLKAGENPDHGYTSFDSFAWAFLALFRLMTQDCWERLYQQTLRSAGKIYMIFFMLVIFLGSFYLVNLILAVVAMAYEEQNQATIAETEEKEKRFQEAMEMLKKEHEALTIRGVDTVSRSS
# human NaV1.5, sequence (Q14524 661-1004 limits assumed): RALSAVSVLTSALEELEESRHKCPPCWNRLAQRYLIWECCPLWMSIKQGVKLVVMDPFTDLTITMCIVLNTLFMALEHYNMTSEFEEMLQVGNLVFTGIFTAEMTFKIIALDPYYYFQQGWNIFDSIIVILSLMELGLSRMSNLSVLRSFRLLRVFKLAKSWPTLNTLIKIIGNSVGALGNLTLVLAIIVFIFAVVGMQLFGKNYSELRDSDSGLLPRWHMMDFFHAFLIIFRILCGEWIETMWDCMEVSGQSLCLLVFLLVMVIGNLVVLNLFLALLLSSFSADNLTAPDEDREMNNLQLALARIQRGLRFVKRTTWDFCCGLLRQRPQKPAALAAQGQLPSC
# human NaV1.5, sequence (Q14524 1142-2016 limits assumed): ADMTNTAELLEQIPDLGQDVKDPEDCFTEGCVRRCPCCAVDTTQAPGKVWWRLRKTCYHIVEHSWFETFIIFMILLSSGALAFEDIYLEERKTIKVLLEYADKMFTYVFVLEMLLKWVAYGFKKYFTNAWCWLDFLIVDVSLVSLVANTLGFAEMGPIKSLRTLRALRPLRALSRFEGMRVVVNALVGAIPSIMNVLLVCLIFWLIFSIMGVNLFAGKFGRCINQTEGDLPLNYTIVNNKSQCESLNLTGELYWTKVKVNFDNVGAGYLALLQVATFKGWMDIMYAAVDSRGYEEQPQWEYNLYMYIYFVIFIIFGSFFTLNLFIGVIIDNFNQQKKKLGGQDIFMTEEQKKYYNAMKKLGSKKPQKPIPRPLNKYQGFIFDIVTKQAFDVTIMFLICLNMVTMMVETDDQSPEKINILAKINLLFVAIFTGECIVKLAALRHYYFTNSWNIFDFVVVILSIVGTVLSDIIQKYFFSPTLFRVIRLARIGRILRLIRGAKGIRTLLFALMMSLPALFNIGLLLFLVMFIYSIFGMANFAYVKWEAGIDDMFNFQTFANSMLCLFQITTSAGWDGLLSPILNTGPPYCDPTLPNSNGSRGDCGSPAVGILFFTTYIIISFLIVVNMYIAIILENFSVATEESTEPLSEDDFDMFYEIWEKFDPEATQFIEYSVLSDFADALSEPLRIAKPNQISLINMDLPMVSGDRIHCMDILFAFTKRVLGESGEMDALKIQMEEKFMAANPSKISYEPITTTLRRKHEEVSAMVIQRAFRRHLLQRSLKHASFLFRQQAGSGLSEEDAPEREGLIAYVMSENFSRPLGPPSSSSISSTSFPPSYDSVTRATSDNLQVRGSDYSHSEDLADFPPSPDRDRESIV
# wild type mouse RyR2 = biological target: T2, wild type mouse RyR2 (Mus musculus, UniProt E9Q401); experiment: Time-lapse [Ca2+]ER assay in HEK-293 RyR2 R-CEPIA1er cells (RyR2 activity assay); assay type: cell-based; details: 25 μM; for effect on RyR2 activity / [Ca2+]ER (in words): vs control 0.1 v/v% DMSO; for RyR2 activity: percentage from the control sample (100%), mean ± SEM;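 for all read-outs here: ER Ca2+ read as R-CEPIA1er fluorescence ratio F/F0 (F0 mean of initial 90 s, F mean of final 100 s), compared with vehicle-treated control wells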
# T2 construct: expressed in transfected cells; host or cells: HEK-293 cells stably expressing WT RyR2 and R-CEPIA1er (gift of Dr. Takashi Murayama), induced with doxycycline
# SERCA2 = SERCA2 (Mus musculus, UniProt O55143); experiment: Caffeine induced calcium release assay on live HL-1 cardiomyocytes; assay type: cell-based; details: for EC50: 2 h preincubation, 10 mM caffeine, read-out: activation of SERCA2 in HL-1, EC50 (converted); for activation of SERCA2 in HL-1: 10 μM, percentage from the control sample (100%), mean ± SEM;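 for all read-outs here: Read-out: caffeine-evoked peak minus basal fluorescence (ΔF Caff) of cytoplasmic FLIPR Calcium 6 dye, recorded for 1 min, compared with Tyrode's solution plus 0.1 v/v% DMSO as control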
# SERCA2, sequence (O55143 1-994 limits assumed): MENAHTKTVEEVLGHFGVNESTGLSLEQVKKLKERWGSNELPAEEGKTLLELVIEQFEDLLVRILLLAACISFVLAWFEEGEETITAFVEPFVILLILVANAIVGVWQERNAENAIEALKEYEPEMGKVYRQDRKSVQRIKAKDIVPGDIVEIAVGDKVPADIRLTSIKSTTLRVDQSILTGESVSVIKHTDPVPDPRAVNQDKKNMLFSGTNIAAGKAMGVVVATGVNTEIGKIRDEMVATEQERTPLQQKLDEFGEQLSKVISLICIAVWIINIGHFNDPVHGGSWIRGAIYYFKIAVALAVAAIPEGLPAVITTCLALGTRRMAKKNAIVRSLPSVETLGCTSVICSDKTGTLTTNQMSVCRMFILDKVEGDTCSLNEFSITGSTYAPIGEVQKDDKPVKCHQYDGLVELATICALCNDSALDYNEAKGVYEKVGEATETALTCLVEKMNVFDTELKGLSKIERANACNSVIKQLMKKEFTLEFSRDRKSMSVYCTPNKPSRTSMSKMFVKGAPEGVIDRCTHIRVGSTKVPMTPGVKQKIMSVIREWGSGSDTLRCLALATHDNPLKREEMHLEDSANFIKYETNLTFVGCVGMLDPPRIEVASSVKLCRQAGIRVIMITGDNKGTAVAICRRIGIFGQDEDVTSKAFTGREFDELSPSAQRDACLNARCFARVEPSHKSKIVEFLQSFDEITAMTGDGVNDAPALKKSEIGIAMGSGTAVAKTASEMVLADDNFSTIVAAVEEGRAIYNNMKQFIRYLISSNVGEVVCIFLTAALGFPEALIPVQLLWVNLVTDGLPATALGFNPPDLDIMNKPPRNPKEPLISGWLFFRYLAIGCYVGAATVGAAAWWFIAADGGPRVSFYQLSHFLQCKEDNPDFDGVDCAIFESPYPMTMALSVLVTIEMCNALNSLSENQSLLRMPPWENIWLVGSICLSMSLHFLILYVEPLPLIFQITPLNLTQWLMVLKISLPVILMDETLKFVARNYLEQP
# [1] = PermeaPad membrane permeability; assay type: in vitro ADME; details: not told, room temperature, class low/medium in parentheses, read-out: P e (permeability rate)
# Text: We determined permeability rates (P e ), which are a measure of how fast a compound can cross a membrane, using cell-free transport models (PermeaPad, innoME GmbH) The CA derivatives have medium to low permeability rates in the range 1.0–24.0 nm/s (Table ). Similar to S36, despite poor permeability, compounds 2–4, 8, and 9 acted on live RyR2-HEK-293 R-CEPIA1er cells inhibiting RyR2. […] Since PermeaPad is an artificial model that primarily reflects passive diffusion, it is likely that additional mechanisms contribute to the crossing of cell membranes by these compounds.
# Membrane permeability was assessed using PermeaPad Plate according to the manufacturing procedure (innoME GmbH, Espelkamp, Germany). Briefly, 200 μL (V A) water was added into acceptor plate. 200 μL (V D) of 100–500 μM test compound in water was added directly to the well membranes of the donor plate. The donor plate contains a biomimetic membrane for simulating passive mass transfer through different barriers in the body. Then the donor plate was placed into the acceptor plate wells and incubated at room temperature for 24 h in dark. To determine peak absorbance of test compounds, absorbance spectra of acceptor solutions and initial solutions for each test compound were read out. The Permeability Rate (P e) was calculated using the formula:
# P e = C × −ln (1 – ODA/ODB) cm/s, where OD A is the absorbance of acceptor solution, OD B is the absorbance of the standard solution; if the compound is able to permeabilize the membrane and fully reach equilibrium, 250 μM will be the final concentration of solution in the donor and acceptor wells. The coefficient C was calculated using the formula: C=VD×VA/(VD+VA)×Area×time where V A–acceptor volume (cm^3), V D–donor volume (cm^3), membrane area 0.24 cm^2, time is 86,400 s.
SMILES,effect on SERCA2a ATPase activity (in words) (SERCA2a),ATPase activity of SERCA2a in mouse SER (SERCA2a),NaV1.5 activity in CHO cells (human NaV1.5),effect on NaV1.5 activity (in words) (human NaV1.5),effect on RyR2 activity / [Ca2+]ER (in words) (wild type mouse RyR2),RyR2 activity (wild type mouse RyR2),EC50 (SERCA2; HL-1 cells),effect on NaV1.5 (in words) (human NaV1.5; 100 μM),activation of SERCA2 in HL-1 (SERCA2),Papp at 24 h [1],effect on NaV1.5 (in words) (human NaV1.5; 1 μM),effect on NaV1.5 (in words) (human NaV1.5; 10–100 μM),effect in caffeine-induced Ca2+ release assay relative to CDN1163 (SERCA2; HL-1 cardiomyocytes),"increase in the signaling response to caffeine stimulation compared to the control sample (SERCA2; HL-1 cells, maximal effect of the dose-response)","EC50 (SERCA2a; kinetic rate of NADH–NAD+ conversion, Figure S10: 200 µM free Ca2+)",concentration of maximal inhibition (human NaV1.5; positive control)
"O=C(O)C=Cc1ccc(O)c(O)c1 [CA, 3-(3,4-dihydroxyphenyl)-2-propenoic acid, reference compound]",accelerated consumption of NADH,108.5 ± 2.5%,91.8 ± 2.4%,no effect on NaV1.5 activity,did not affect the RyR2 activity,100.9 ± 0.8%,,,,,,,,,,
"Cc1ccc2cccc(NC(=O)c3ccc(OC(C)C)cc3)c2n1 [CDN1163, reference compound]",,,,blocked NaV1.5,,,21 µM and 21.2 µM,comparable to the maximal effect of tetracaine,,,,,,,,
"COc1ccc(SCCCNC(=O)/C=C/c2ccc(O)c(O)c2)cc1 [Compound 2, (E)-3-(3,4-Dihydroxyphenyl)-N-(3-((4-methoxyphenyl)thio)propyl)acrylamide]",significant activation of SERCA2a ATPase,109.2 ± 3.6%,89.7 ± 1.1%,,RyR2 activators,96.5 ± 0.4%,11 µM,,161.5 ± 9.5%,< 1 ×10⁻⁶ cm/s,,,,,,
"COc1ccc2c(c1)CN(C/C=C/C(=O)NNC(=O)/C=C/c1ccc(O)c(O)c1)CCS2 [Compound 3, (E)-N′-((E)-3-(3,4-Dihydroxyphenyl)acryloyl)-4-(7-methoxy-2,3-dihydrobenzo[1,4-f]thiazepin-4(5H)-yl)but-2-enehydrazide]",did not evoke a significant increase in ATPase activity,100.6 ± 2.5%,94.8 ± 2.1%,,significantly increased [Ca^2+]ER,101.7 ± 0.3%,> 3 µM,,135.4 ± 3.8%,3.4 ×10⁻⁶ cm/s,,,,,,
COc1ccc2c(c1)CN(CCCCNC(=O)C(=O)NCCCCCCNC(=O)/C=C/c1ccc(O)c(O)c1)CCS2 [Compound 4],significant activation of SERCA2a ATPase,110.8 ± 4.5%,108.0 ± 1.6%,,significantly increased [Ca^2+]ER,102.2 ± 0.6%,1.4 µM,small but significant activating effect,140.3 ± 6.4%,2.7 ×10⁻⁶ cm/s,,,,,,
COc1ccc2c(c1)CN(CCCCCCNC(=O)/C=C/c1ccc(O)c(O)c1)CCS2 [Compound 6],,112.3 ± 3.5%,88.8 ± 0.9%,,did not affect the RyR2 activity,99.4 ± 0.4%,3.1 µM,,235.4 ± 8.5%,0.9 ×10⁻⁶ cm/s,,,,,,
COc1ccc2c(c1)CN(CCCCCCCCNC(=O)/C=C/c1ccc(O)c(O)c1)CCS2 [Compound 7],,109.8 ± 2.9%,87.4 ± 1.1%,bell-shaped behavior,,100.1 ± 1.7%,1.9 µM,,175.3 ± 7.2%,0.9 ×10⁻⁶ cm/s,activating effect,inhibitory effect,,,,
COc1ccc2c(c1)CN(CCCCCCNC(=O)/C=C/c1ccc(O)c(O)c1)CCO2 [Compound 8],,110.5 ± 3.5%,96.6 ± 3.6%,,RyR2 activators,95.0 ± 1.2%,7.6 µM,,158.1 ± 2.4%,1.1 ×10⁻⁶ cm/s,,,,,,
COc1ccc2c(c1)CN(CCCCCCCCNC/C=C/c1ccc(O)c(O)c1)CCO2 [Compound 10],,112.3 ± 4.6%,103.0 ± 1.4%,no effect on NaV1.5,significantly increased [Ca^2+]ER,102.1 ± 0.4%,47.6 µM,,126.4 ± 13.0%,0.2 ×10⁻⁶ cm/s,,,,,,
COc1ccc2c(c1)CN(CCCC[NH+]([BH2-]C#N)C/C=C/c1ccc(O)c(O)c1)CCS2 (centres unmarked) [Compound 11],,115.7 ± 4.0%,83.8 ± 1.7%,,did not affect the RyR2 activity,100.8 ± 0.7%,13.6 µM,,267.3 ± 11.7%,2.6 ×10⁻⁶ cm/s,,,2.5 fold,up to 450%,0.03 µM and 0.0296 µM,
"O=C1CN(/N=C/c2ccc(-c3ccc([N+](=O)[O-])cc3)o2)C(O)=N1 [dantrolene, reference compound]",,,,,increase in R-CEPIA1er fluorescence,,,,,,,,,,,
"CCCCNc1ccc(C(=O)OCCN(C)C)cc1 [tetracaine, reference compound]",,,,,,,,,,,,,,,,100 µM
